Converted amounts (≈) assume the structure as drawn. Where two headings read alike, the source gives them in different places.
Assays:
Type in all cases: cell-based
[1] = system: mitochondrial protein synthesis in HepG2 cells; assay: Mitochondrial protein synthesis assay (COX-I to SDH-A ratio, In Cell ELISA); conditions: 4 days, ratio of COX-I to SDH-A levels, read-out: MPS IC50
Description: Mitochondrial Protein Synthesis Assay
Inhibition of mitochondrial protein synthesis was assessed in HepG2 cells by comparing the levels of two subunits of oxidative phosphorylation enzyme complexes, subunit I of Complex IV (COX-I) and the 70 kDa subunit of Complex II (SDH-A). COX-I is mitochondrial DNA encoded and SDH-A is nuclear DNA encoded. HepG2 cells were seeded in 96-well collagen coated plates at 8,000 cells per well and exposed to 2-fold serial dilutions of compounds from 100 μM to 6.25 μM. Microtiter plates were incubated for approximately 5 replication cycles (4 days) prior to assessment of protein levels using a kit as described by the manufacturer (ab110217 MitoBiogenesis In Cell ELISA Kit, Abcam, Cambridge, MA). Inhibition of mitochondrial protein synthesis was expressed as a ratio of COX-1 to SDH-A levels.

[2] = system: Mycobacterium tuberculosis (Mtb-GFP; H37Rv pMSP12::GFP); assay: microbe, parasite or virus in culture; conditions: 168 h, pH 6.8, read-out: Mtb Glu MITC95, glucose carbon source, pH 6.8, 7-day growth, GFP fluorescence, lowest concentration inhibiting 95% of growth
[3] = system: Mycobacterium tuberculosis (Mtb-GFP; H37Rv pMSP12::GFP); assay: microbe, parasite or virus in culture; conditions: 168 h, pH 6.8, read-out: Mtb Cho MITC95, cholesterol carbon source, pH 6.8, 7-day growth, GFP fluorescence, lowest concentration inhibiting 95% of growth

Row | Compound | IC50 ([1]; Homo sapiens, HepG2, 96 h) [µM] | MIC [2] [µM] | MIC [3] [µM] | IC50 [1] [µM]
1 | COC(=O)NC[C@H]1CC(c2ccc(-c3ccc(S(=O)(=O)C4(C)CN(C)C4)cc3)c(F)c2)=NO1 [Example 14, Methyl N-[[(5R)-3-[4-[4-(1,3-dimethylazetidin-3-yl)sulfonylphenyl]-3-fluoro-phenyl]-4,5-dihydroisoxazol-5-yl]methyl]carbamate] | 42 | 0.12 (≈ 0.0571 µg/mL) | 0.12 (≈ 0.0571 µg/mL) | –
2 | Fc1cc(C2=NO[C@@H](Cn3ccnn3)C2)ccc1-c1ccn2c(C3CNC3)nnc2c1 [Example 37, 3-(Azetidin-3-yl)-7-(2-fluoro-4-{(5R)-5-[(1H-1,2,3-triazol-1-yl)methyl]-4,5-dihydro-1,2-oxazol-3-yl}phenyl)[1,2,4]triazolo[4,3-a]pyridine] | 65 | 0.78 (≈ 0.326 µg/mL) | 1.56 (≈ 0.653 µg/mL) | –
3 | CN1CC(S(=O)(=O)c2ccc(-c3c(F)cc(C4=NO[C@@H](CO)C4)cc3F)cc2)C1 [Example 41, {(5R)-3-[2,6-Difluoro-4′-(1-methylazetidine-3-sulfonyl)[1,1′-biphenyl]-4-yl]-4,5-dihydro-1,2-oxazol-5-yl}methanol] | > 100 | 1.56 (≈ 0.659 µg/mL) | 2.34 (≈ 0.989 µg/mL) | –
4 | COC(=O)NC[C@H]1CC(c2cc(F)c(N3CCS(=O)(=O)CC3)c(F)c2)=NO1 [Example 4, Methyl N-[[(5R)-3-[4-(1,1-dioxo-1,4-thiazinan-4-yl)-3,5-difluoro-phenyl]-4,5-dihydroisoxazol-5-yl]methyl]carbamate] | > 100 | 3.12 (≈ 1.26 µg/mL) | 3.12 (≈ 1.26 µg/mL) | –
5 | CN1CC(S(=O)(=O)c2ccc(-c3c(F)cc(C4=NO[C@@H](CNS(C)(=O)=O)C4)cc3F)cc2)C1 [Example 33, N-({(5R)-3-[2,6-Difluoro-4′-(1-methylazetidine-3-sulfonyl)[1,1′-biphenyl]-4-yl]-4,5-dihydro-1,2-oxazol-5-yl}methyl) methanesulfonamide] | > 100 | 1.56 (≈ 0.779 µg/mL) | 1.66 (≈ 0.829 µg/mL) | –
6 | CCOC(=O)NC[C@H]1CC(c2cc(F)c(C3(F)CCS(=O)(=O)CC3)c(F)c2)=NO1 [Example 55, Ethyl ({(5R)-3-[3,5-difluoro-4-(4-fluoro-1,1-dioxo-1λ^6-thian-4-yl)phenyl]-4,5-dihydro-1,2-oxazol-5-yl}methyl)carbamate] | > 100 | 3.12 (≈ 1.36 µg/mL) | 3.12 (≈ 1.36 µg/mL) | –
7 | CN=S1(=O)CCC(F)(c2c(F)cc(C3=NO[C@@H](CNC(=O)OC)C3)cc2F)CC1 (single isomer, unassigned) [Example 9] | – | – | – | > 100
8 | CN1CC(Oc2ccc(-c3c(F)cc(C4=NO[C@@H](Cn5ccnn5)C4)cc3F)cc2)C1 [Example 34, 1-{[(5R)-3-{2,6-Difluoro-4′-[(1-methylazetidin-3-yl)oxy][1,1′-biphenyl]-4-yl}-4,5-dihydro-1,2-oxazol-5-yl]methyl}-1H-1,2,3-triazole] | 2.6 | 0.09 (≈ 0.0383 µg/mL) | 0.09 (≈ 0.0383 µg/mL) | –
9 | COC(=O)NC[C@H]1CC(c2cc(F)c(C3(F)CCS(=O)(=O)CC3)c(F)c2)=NO1 [Example 2, Methyl N-[[(5R)-3-[3,5-difluoro-4-(4-fluoro-1,1-dioxo-thian-4-yl)phenyl]-4,5-dihydroisoxazol-5-yl]methyl]carbamate] | > 100 | 1.6 (≈ 0.673 µg/mL) | 1.6 (≈ 0.673 µg/mL) | –
10 | CN=S1(=O)CCC(F)(c2c(F)cc(C3=NO[C@@H](CNC(C)=O)C3)cc2F)CC1 (stereo partly drawn) [Example 29, N-{[(5R)-3-{3,5-Difluoro-4-[4-fluoro-1-(methylimino)-1-oxo-1λ^6-thian-4-yl]phenyl}-4,5-dihydro-1,2-oxazol-5-yl]methyl}acetamide] | > 100 | 1.56 (≈ 0.651 µg/mL) | 1.56 (≈ 0.651 µg/mL) | –
11 | CC(=O)NC[C@H]1CC(c2ccc(-c3ccc(S(=O)(=O)C4(C)CN(C)C4)cc3)c(F)c2)=NO1 [Example 18, N-[[(5R)-3-[4-[4-(1,3-Dimethylazetidin-3-yl)sulfonylphenyl]-3-fluoro-phenyl]-4,5-dihydroisoxazol-5-yl]methyl]acetamide] | 13 | 0.39 (≈ 0.179 µg/mL) | 0.39 (≈ 0.179 µg/mL) | –
12 | N#Cc1ccc(-c2ccc(C3=NO[C@@H](COC(N)=O)C3)cc2F)cn1 [Example 20, {(5R)-3-[4-(6-Cyanopyridin-3-yl)-3-fluorophenyl]-4,5-dihydro-1,2-oxazol-5-yl}methyl carbamate] | 7.2 | 0.39 (≈ 0.133 µg/mL) | 0.19 (≈ 0.0647 µg/mL) | –
13 | CN=S1(=O)CCC(F)(c2c(F)cc(C3=NO[C@@H](CNC(C)=O)C3)cc2F)CC1 (stereo partly drawn) [Example 30, N-{[(5R)-3-{3,5-Difluoro-4-[4-fluoro-1-(methylimino)-1-oxo-1λ^6-thian-4-yl]phenyl}-4,5-dihydro-1,2-oxazol-5-yl]methyl}acetamide] | – | – | – | > 100
14 | CN1CC(C)(S(=O)(=O)c2ccc(-c3ccc(C4=NO[C@@H](Cn5ccnn5)C4)cc3F)cc2)C1 [Example 3, (5R)-3-[4-[4-(1,3-Dimethylazetidin-3-yl)sulfonylphenyl]-3-fluoro-phenyl]-5-(triazol-1-ylmethyl)-4,5-dihydroisoxazole] | 6.2 | 0.12 (≈ 0.0563 µg/mL) | 0.14 (≈ 0.0657 µg/mL) | –
15 | CN1CC(C)(S(=O)(=O)c2ccc(-c3ccc(C4=NO[C@@H](CNC(=O)OC5CC5)C4)cc3F)cc2)C1 [Example 17, Cyclopropyl N-[[(5R)-3-[4-[4-(1,3-dimethylazetidin-3-yl)sulfonylphenyl]-3-fluoro-phenyl]-4,5-dihydroisoxazol-5-yl]methyl]carbamate] | – | 0.39 (≈ 0.196 µg/mL) | 0.39 (≈ 0.196 µg/mL) | –
16 | CN=S1(=O)CCC(F)(c2c(F)cc(C3=NO[C@@H](Cn4ccnn4)C3)cc2F)CC1 (single isomer, unassigned) [Example 7] | – | – | – | > 100
17 | CN=S1(=O)CCN(c2c(F)cc(C3=NO[C@@H](Cn4ccnn4)C3)cc2F)CC1 [Example 31, 4-(2,6-Difluoro-4-{(5R)-5-[(1H-1,2,3-triazol-1-yl)methyl]-4,5-dihydro-l,2-oxazol-3-yl}phenyl)-1-(methylimino)-1λ^6-thiomorpholin-1-one] | > 100 | 4.69 (≈ 1.93 µg/mL) | 5.47 (≈ 2.25 µg/mL) | –
18 | CN1CC(C)(C(F)(F)c2ccc(-c3ccc(C4=NO[C@@H](Cn5ccnn5)C4)cc3F)cc2)C1 [Example 10, 1-{[(5R)-3-{4′-[(1,3-Dimethylazetidin-3-yl)(difluoro)methyl]-2-fluoro[1,1′-biphenyl]-4-yl}-4,5-dihydro-1,2-oxazol-5-yl]methyl}-1H-1,2,3-triazole] | 22 | 0.19 (≈ 0.0865 µg/mL) | 0.19 (≈ 0.0865 µg/mL) | –
19 | N=S1(=O)CCC(F)(c2c(F)cc(C3=NO[C@@H](Cn4ccnn4)C3)cc2F)CC1 (stereo partly drawn) [Example 38, 4-(2,6-Difluoro-4-{(5R)-5-[(1H-1,2,3-triazol-1-yl)methyl]-4,5-dihydro-1,2-oxazol-3-yl}phenyl)-4-fluoro-1-imino-1λ^6-thian-1-one] | – | 0.78 (≈ 0.322 µg/mL) | 1.56 (≈ 0.645 µg/mL) | 44
20 | CN1CC(C)(S(=O)(=O)c2ccc(-c3c(F)cc(C4=NO[C@@H](Cn5ccnn5)C4)cc3F)cc2)C1 [Example 22, 1-({(5R)-3-[4′-(1,3-Dimethylazetidine-3-sulfonyl)-2,6-difluoro[1,1′-biphenyl]-4-yl]-4,5-dihydro-1,2-oxazol-5-yl}methyl)-1H-1,2,3-triazole] | 25 | 0.29 (≈ 0.141 µg/mL) | 0.49 (≈ 0.239 µg/mL) | –
21 | CN1CC(C)(S(=O)(=O)c2ccc(-c3c(F)cc(C4=NO[C@@H](Cn5ccnn5)C4)cc3F)cn2)C1 [Example 24, 5-(2,6-Difluoro-4-{(5R)-5-[(1H-1,2,3-triazol-1-yl)methyl]-4,5-dihydro-1,2-oxazol-3-yl}phenyl)-2-(1,3-dimethylazetidine-3-sulfonyl)pyridine] | 76 | 3.12 (≈ 1.52 µg/mL) | 3.12 (≈ 1.52 µg/mL) | –
22 | CC(=O)NC[C@H]1CN(c2ccc(N3CCOCC3)c(F)c2)C(=O)O1 [linezolid, reference compound] | 8 | 4.58 (≈ 1.55 µg/mL) | 3.14 (≈ 1.06 µg/mL) | –
23 | CN1CC(C)(S(=O)(=O)c2ccc(-c3ccc(C4=NO[C@@H](CO)C4)cc3F)cc2)C1 [Example 21, {(5R)-3-[4′-(1,3-Dimethylazetidine-3-sulfonyl)-2-fluoro[1,1′-biphenyl]-4-yl]-4,5-dihydro-1,2-oxazol-5-yl}methanol] | > 100 | 1.56 (≈ 0.653 µg/mL) | 1.56 (≈ 0.653 µg/mL) | –
24 | Fc1cc(C2=NO[C@@H](Cn3ccnn3)C2)ccc1-c1ccn2c(C3(F)CNC3)nnc2c1 [Example 52, 3-(3-Fluoroazetidin-3-yl)-7-(2-fluoro-4-{(5R)-5-[(1H-1,2,3-triazol-1-yl)methyl]-4,5-dihydro-1,2-oxazol-3-yl}phenyl)[1,2,4]triazolo [4.3-a]pyridine] | 27 | 0.78 (≈ 0.34 µg/mL) | 0.78 (≈ 0.34 µg/mL) | –
25 | O=S1(=O)CCN(c2c(F)cc(C3=NO[C@@H](Cn4ccnn4)C3)cc2F)CC1 [Example 5, 4-(2,6-Difluoro-4-{(5R)-5-[(1H-1,2,3-triazol-1-yl)methyl]-4,5-dihydro-1,2-oxazol-3-yl}phenyl)-1λ^6-thiomorpholine-1,1-dione] | – | 3.12 (≈ 1.24 µg/mL) | 3.12 (≈ 1.24 µg/mL) | –
26 | N=S1(=O)CCC(F)(c2c(F)cc(C3=NO[C@@H](Cn4ccnn4)C3)cc2F)CC1 (stereo partly drawn) [Example 39, 4-(2,6-Difluoro-4-{(5R)-5-[(1H-1,2,3-triazol-1-yl)methyl]-4,5-dihydro-1,2-oxazol-3-yl}phenyl)-4-fluoro-1-imino-1λ^6-thian-1-one] | – | – | – | > 100

Source: patent US20260035363A1, “COMPOUNDS AND METHODS OF USE THEREOF AS ANTIBACTERIAL AGENTS” (priority 2019, published 2026)
